“Also recorded” adds a separate entry of the source.
Experiments:
Format in all cases: cell-based, mouse
[1] = tested on: cleaved caspase 3 and PARP; assay: Western blot of apoptotic molecules; settings: B16 melanoma cells
B16 melanoma cells = assay: MTT cell viability assay; settings: 24 hrs of treatment, increasing dosages
Protocol: B16 mouse melanoma cells were purchased from (ATCC, Manassas, Va., USA).
The base medium for the cell line was Dulbecco's modified Eagle's medium (DMEM). To make the complete growth medium, fetal bovine serum (final concentration, 10%) was added to the base medium. Tocotrienol (T3) and tocopherol (TP) isomers and the palm tocotrienol-rich fraction (TRF) were purified from a palm fatty acid distillate (PFAD) using molecular distillation and Novasep® equipment (Novasep, Pompey, France). The extraction facility is located in Tuas, Singapore. The PFAD feed was purchased from Kuala Lumpur Kepong Berhad (Kuala Lumpur, Malaysia). The purity of the vitamin E isomers was verified by HPLC and gas chromatography (GC) percentage peak area.
For the cell viability study, 5×10^3 cells re-suspended in 100 μl of medium were plated into each well of a 96-well plate. The cells were then treated with different concentrations of the vitamin-E isomers for 24 hrs. After the treatment, 20 μl of MTT solution (1 mg/ml in PBS; Sigma-Aldrich, St. Louis, Mo., USA) was added to each well and the cells were incubated at 37° C. for 2 hrs. The formazan crystals were then re-suspended in 200 μl of DMSO and the intensity at 595 nm was measured.

tyrosinase = assay: Western blot of tyrosinase protein expression in B16 melanoma cells; settings: for tyrosinase protein expression: 20 μM treatment; for tyrosinase protein suppression, dose response and relative potency: increasing dosage; for time response of tyrosinase suppression: single dose, 24 hrs versus 48 hrs
Protocol: Carcinogenesis, 2006, 27, 2180-9. Briefly, cell lysates were prepared by suspending cell pellets in lysis buffer (50 mmol/l Tris-HCl [pH 8.0], 150 mmol/l NaCl, 1% NP40, 0.5% deoxycholate, 0.1% SDS, […], 1 μg/ml leupeptin, and 1 mmol/l phenylmethylsulfonyl fluoride). The protein concentration was measured using the DC Protein Assay kit (Bio-Rad, Hercules, Calif., USA). An equal amount of protein (30 μg) was loaded onto a 10% SDS polyacrylamide gel for electrophoresis, then transferred onto a polyvinylidene difluoride membrane (Amersham, Piscataway, N.J., USA). The membrane was then incubated with primary antibodies for 1 hr at room temperature against tyrosinase, Id1, and beta-actin (Santa Cruz Biotechnology, Inc., Santa Cruz, Calif., USA). After incubation with appropriate secondary antibodies, signals were visualized by an ECL Western blotting system (Amersham). The expression of β-actin was assessed as an internal loading control for total cell lysate.

For CC(C)=CCC/C(C)=C/CC/C(C)=C/CCC1(C)CCc2cc(O)c(C)c(C)c2O1 (stereo not drawn) [γ-tocotrienol, 7,8-dimethyltocotrienol], the “induction of apoptotic molecules (cleaved caspase 3 and PARP)” value [1] was “induced critical apoptotic molecules in a dose-dependent manner”, the “induction of apoptotic molecules (cleaved caspase 3 and PARP)” value ([1]; listed as γ-T3) was “induced cellular apoptosis” and the “B16 melanoma cell viability / proliferation rate” value (B16 melanoma cells) was “inhibited the proliferation rate of B16 melanoma cells in a dose-dependent fashion; also recorded: inhibit B16 melanoma cell viability at high concentrations”. For the same compound, the tyrosinase protein expression (tyrosinase; listed as γ-T3) was “remarkable suppression of tyrosinase protein expression”, the tyrosinase protein expression (tyrosinase; listed as γT3) was “suppresses tyrosinase protein expression” and the “tyrosinase protein suppression, dose response and relative potency” value (tyrosinase; listed as γ-T3) was “significant suppression of tyrosinase in a dose-dependent manner”. The “tyrosinase protein suppression, dose response and relative potency” value (tyrosinase; listed as γT3) was “stronger”, the “time response of tyrosinase suppression” value (tyrosinase; listed as γ-T3) was “enhanced by increasing the treatment period from 24 to 48 hrs” and the “time response of tyrosinase suppression” value (tyrosinase; listed as γT3) was “enhanced after a 48 hr incubation period”.
